# Columns and labels:
# [1] = test system: mouse fibroblasts (NIH3T3 cell line); assay: Cell viability assay (WST-1), NIH3T3 fibroblasts; type: cell-based; conditions: FIG. 7A
# Experimental: Murine NIH3T3 fibroblasts and human lung epithelial cells (A549 cells) were purchased from the Bioresource Collection and Research Center (Hsinchu, Taiwan). Cells were cultured in Dulbecco's modified eagle medium (DMEM) containing 10% fetal bovine serum (FBS), 100 μg/mL penicillin, 100 μg/mL streptomycin. Cells were cultured at 37° C. in a humidified atmosphere of 5% CO2 and passaged every 4 to 5 days at 1:4 ratios.
# Murine NIH3T3 fibroblasts were seeded into 96-well plates (1×10^3 cells/well). To measure the cell viability and the cell proliferation, 10% WST-1 (cell proliferation reagent WST-1, Roche) was added to each well and reacted for 3 hours. The reaction was catalyzed by mitochondrial reductase in active cells and the optical density (OD) was calculated by measuring the absorbance at 450 nm via a Bio-Rad ELISA analyzer.
# LX2 cells = assay: Apoptosis (Annexin V / propidium iodide flow cytometry), LX2 cells; type: cell-based, human
# Experimental: Rat immortal hepatic stellate cell line HSC-T6 and LX2 human hepatic stellate cell line were provided by Professor Scott Friedman of Mount Sinai Hospital in New York, USA. The primary mouse HSCs were obtained via the way: after intubating the hepatic portal vein of the mouse, the cells were perfused with […] and ethylene glycol bis-aminoethyl ether tetraacetic acid (EGTA) buffer in situ, and then collagenase was injected to digest the liver tissue, and then the primary mouse HSCs were isolated by Histodnz gradient. HSC-T6 cells were cultured in Waymouth medium; LX2 cells and primary mouse HSCs were cultured in Dulbecco's Modified Eagle Medium (DMEM) containing 10% fetal bovine serum (FBS), 100 μg/mL penicillin, 100 μg/mL streptomycin, and 2 mM L-glutamine HSC-T6 cells, LX2 cells and primary mouse HSCs were cultured in a humidified incubator containing 5% carbon dioxide at 37° C. After adding the FBS, the resting HSC is started. […] The experiment was carried out following the manufacturer's instructions, and each group was triple repetition. […] The proportion of apoptotic cells was mixed the early (Annexin V+/PI-) and the late (Annexin V+/PI+) apoptotic cells measured by BD FACS Verse flow cytometry (BD, USA). Plasmids encoding the human wild-type SHP-1 and SHP-1 mutant, in which the N-SH2 domain was […] was changed into an […]) were cloned into the pCMV6-entry vector with myc-tag. These mutants were confirmed through DNA sequencing. […] (Chicago, Ill., USA).
# HSC-T6 cells = assay: Apoptosis (Annexin V / propidium iodide flow cytometry), HSC-T6 cells; type: cell-based, rat
# Experimental: Rat immortal hepatic stellate cell line HSC-T6 and LX2 human hepatic stellate cell line were provided by Professor Scott Friedman of Mount Sinai Hospital in New York, USA. The primary mouse HSCs were obtained via the way: after intubating the hepatic portal vein of the mouse, the cells were perfused with Leffert's and ethylene glycol bis-aminoethyl ether tetraacetic acid (EGTA) buffer in situ, and then collagenase was injected to digest the liver tissue, and then the primary mouse HSCs were isolated by Histodnz gradient. […]
# HSC-T6 cells, LX2 cells or primary mouse HSCs cells were seeded in 96-well plates (5,000 cells/well) for 24 hours, and the cells were treated with various concentrations of 1-[4-chloro-3-(trifluoromethyl)phenyl]-3-[3-(4-cyanophenoxy)phenyl]urea or Sorafenib for 24 or 48 hours. The effect of each reagent on the cell viability and the cell were evaluated by CellTiter 96 AQueous one solution of 3-(4,5-dimethylthiazol-2-yl)-5-(3-carboxymethoxyphenyl)-2-(4-sulfophenyl)-2H-tetra zolium, an inner, MTS (Promega, USA). […] The proportion of apoptotic cells was mixed the early (Annexin V+/PI−) and the late (Annexin V+/PI+) apoptotic cells measured by BD FACS Verse flow cytometry (BD, USA). […]
structure (smiles),measurement,setting,value
N#Cc1ccc(Oc2cccc(NC(=O)Nc3ccc(Cl)c(C(F)(F)F)c3)c2)cc1 [1-[4-chloro-3-(trifluoromethyl)phenyl]-3-[3-(4-cyanophenoxy)phenyl]urea],survival rate of mouse fibroblasts,[1],reduced the survival rate of mouse fibroblasts (NIH3T3 cell line) in a dose-dependent manner
same,"apoptotic LX2 cells, ectopic expression of the vector control and wild-type SHP-1","LX2 cells; 5 μM, 24 hours, FIG. 17D, 17E",significantly increased the apoptotic LX2 cells
same,HSC apoptosis,"LX2 cells; LX2, 24 hours, compared with sorafenib, FIG. 14B",significantly increased HSC apoptosis in a dose-dependent manner
same,cell apoptosis and p-STAT3 downregulation in dN1 and D61A mutants,"LX2 cells; LX2, 5 μM, 24 hours, FIG. 17E",insensitive
same,anti-proliferative activity after SHP-1 knockdown by using siRNA,"LX2 cells; LX2, FIG. 16F",significantly counteracted
same,HSC apoptosis,"HSC-T6 cells; HSC-T6, 24 hours, compared with sorafenib, FIG. 14B",significantly increased HSC apoptosis in a dose-dependent manner
same,compound-induced apoptosis in STAT3-overexpressing HSCs,"HSC-T6 cells; rat STAT3 stable overexpression clone, FIG. 15C",significantly abolished
